Data reported in patent publication US20180022734A1 (Sound Biopharmaceuticals Ltd., priority 2015, published 2018).
Where two headings read alike, the source gives them in different places.

Columns and labels:
786-O cell or A549 cell = assay: Cell morphology and survival rate after 4 to 8 hours incubation; format: cell-based, human; details: for cell survival: 786-O cell or A549 cell, incubated for 8 hours; for cell morphology: cancer cells incubated for 4 hours
[1] = Stability of compounds 1 and 2 in MeOH stock solution and with biomass; format: physicochemical
Source text: No prodrug was detected in organs except for spleen during processing. […] The prodrugs may be converted to Sunitinib or other metabolite during processing or in vivo.

cancer cell xenograft = assay: Pharmacodynamic tests on mice xenograft transplantation model; format: in vivo; details: intraperitoneally injected 1.5, 7.5, 30 mg/kg once a day for 2 weeks
Method: (§1) For in vitro tests, compounds were directly dissolved in 10 mM DMSO and stored at −20° C. For in vivo tests, the compounds were dissolved in DMSO and neutralized by Tween 80 (DMSO:Tween=1:1) and further neutralized by PBS (pH 7.4). The final concentrations of DMSO and Tween-80 were 5%.
5×10^6 cancer cells were subcutaneously injected to the right side of mouse. Drug was intraperitoneally injected at dosages of 1.5 mg/kg, 7.5 mg/kg, 30 mg/kg to the mice, once a day, for 2 weeks when average tumor size reached 75 to 150 mm^3. The size of the tumor was measured every other day. […] Compound 1 had less efficacy.
We then performed the test through oral route. 5×10^6 cancer cells were subcutaneously injected to the right side of mouse. Drug was orally administered at dosages of 5 mg/kg, 15 mg/kg, 45 mg/kg to the mice, once a day, for 2 weeks when average tumor size reached 75 to 150 mm^3. The size of the tumor was measured every other day.

[2] = tested on: A549; NCI-H460; 786-O; Caki-1; HT-29; MCF-7; assay: 72 hour cytotoxicity (CCK8) in different cell lines; format: cell-based, human
Source text: A549 human non-small cell lung cancer cell line, NCI-H460 human non-small cell lung cancer cell line, 786-O human renal cell line, Caki-1 human renal cell line, HT-29 human colon cancer cell line, MDA-MB-231 human breast cancer cell line, and MCF-7 human breast cancer cell line was purchased from Chinese Academy of Science Shanghai Branch. PLC/PRF-5 human hepatoma cell line and Hepal-6 mouse hepatoma cell line were obtained from Institute of Biochemistry and Cell Biology, SIBS, CAS (SIBCB). Cell lines A549, Caki-1, HT-29, MDA-MB-231, MCF-7, PLC/PRF-5 and Hepal-6 were cultured in DMEM medium (Gibco, Life Technologies, China) and cell lines NCI-H460 and 786-O were cultured in RPMI-1640 medium (Gibco, Life Technologies, China). 10% HI fetal bovine serum was purchased from Gibco, Life Technologies, USA and 1% penicillin/streptomycin was obtained from Hyclone.
(§2) Approx. 2,000 cells in 50 μL complete medium were plated on each well of a 96-well plate and incubated at 37° C., 5% CO2 overnight. Drugs at concentrations of 0.02 to 10 μM were dissolved in 0.1% DMSO, followed by addition into each well. After incubation for 72 hours, 10 μL CCK8 (Dojindo) was added into each well, followed by incubation at 37° C. for another 4 hours. The OD values were obtained by TECAN Microplate Reader at 450 nm.
as §1

in vivo [3] = assay: in vivo; set-up: AUCiv: unit not given beside the values; details: mouse, in vivo
Source text: Relative Exposure(RE)=AUCi sample/AUCi control
AUCi—area under curve for the i^th organ or tissue; RE>1 indicates targeting at the organ or tissue, with larger RE indicating greater targeting; RE≦1 indicates non-targeting.
RTE refers to the multiple of the percent of drug content in a tissue of sample group with respect to total drug amount in the body vs. that in a control group. Positive RTE values indicate enhanced targeting effects and the more positive the more the multiple of enhancement and the more the enhanced targeting. In contrast, negative RTE values indicate reduced targeting effects. Value 0 indicate no influence to the tissue.
0.083 h, 0.25 h, 0.5 h, 1 h, 3 h, 8 h post injection, blood was taken by eyeball removal and the mice were sacrificed by cervical dislocation. Tissues were perfused with normal saline and livers and kidneys were removed and cleaned with normal saline. The blood samples were centrifuged to obtain supernatants and stored at −20° C. 50 μL plasma sample and 50 μL internal standard (clozapine) working solution was vortexed with 300 μL MeOH and then centrifuged. 150 μL upper organic phase was obtained and mixed with 150 μL water, followed by centrifugation. 10 μL supernatant was sampled for analysis. The tissue samples were weighted and mixed homogeneously with 10 times weight of water. Since the samples were 10-time diluted, the concentration of the tissue would be 10 times the results determined. The heart tissue was 5-time diluted. 100 μL homogenate was mixed with 50 μL internal standard (clozapine) working solution and 300 μL MeOH and then centrifuged. 150 μL upper organic phase was obtained and mixed with 150 μL water, followed by centrifugation. 10 μL supernatant was sampled for analysis.

in vivo [4] = format: in vivo; set-up: AUCpo: unit not given beside the values; details: mouse, in vivo
Source text: Animal experiments: 24 mice in each group were divided into 8 sub-groups.

[5] = tested on: A549 human non-small cell lung cancer cell line; assay: 72-hour (long term) cell killing effects; format: cell-based; details: CCK8
Method: Cell lines and Culture: Cell line A549 was cultured in DMEM medium (Gibco, Life Technologies, China). 10% HI fetal bovine serum was purchased from Gibco, Life Technologies, USA and 1% penicillin/streptomycin was obtained from Hyclone.
as §2, with “0.02 μM” for “0.02”
Processing of Compounds: For in vitro tests, compounds were directly dissolved in 10 mM DMSO and stored at −20° C.

[6] = Acute toxicity test: maximum tolerance dosage (MTD) determination; format: in vivo, BALB/c mice
Method: Methods: Femal BALB/c mice, 4-5 weeks old, weighted greater than 17 g, were used for the test. […] The body weights and conditions of the mice were recorded.
In contrast, the body weights of mice in compound 2 group increased 6.0% in average.
To further explore the toxicity of the compounds, blood was collected after 14-day treatment of drugs and critical biochemical index were analyzed.

pSTAT3 = assay: Effects on STAT3 phosphorylation in A549 cell line; format: cell-based, human; details: 10 μM
Method: as §1

[7] = blood after 14-day treatment, 200 mg/kg
[8] = oral once a day for 14 days, 175 mg/kg
[9] = repeated test, oral once a day, 200 mg/kg

With `CCN(CC)CCNC(=O)c1c(C)[nH]c(C=C2C(=O)N(CC(=O)OC(C)(C)C)c3ccc(F)cc32)c1C` [Compound 1, N-[2-(diethylamino)ethyl]-5-[(5-fluoro-2-oxo-1-(t-butylcarboxymethyl)-2,3-indolin-3-ylmethylene)]-2,4-dimethyl-1H-pyrrolidine-3-carboxamide] the cell survival (786-O cell or A549 cell) was “mass cell death”, the cell morphology (786-O cell or A549 cell) was “changed to round and suffered from stress” and the “stability in the event of coexisting with biomass” value [1] was “easy to degrade”. The “efficacy on tumor size” value (cancer cell xenograft) was “less efficacy”, the “IC50 values among several cell lines” value ([2]; 72 hours, CCK8, FIG. 5a-f) was “comparable” and the “tumor killing effects / cytotoxicity” value ([2]; 72 hours, CCK8, FIG. 5a-f) was “relatively strong tumor killing effects”. For the same compound, the AUCiv (in vivo [3]; iv) was 478.9, the Cl (in vivo [3]; iv) was 267.5 mL/h and the “Cmax, times than that of the control” value (in vivo [3]; iv) was “approx. 5 times”. For the same compound, the “RTE analysis: distribution proportions in organs” value (in vivo [3]; iv) was “increased distribution proportions in liver and spleen”, the Tmax (in vivo [3]; iv) was 4.8 min and the AUCpo (in vivo [4]; po) was 946.2. For the same compound, the Cl (in vivo [4]; po) was 3848.9 mL/h, the Tmax (in vivo [4]; po) was 30 min and the t1/2 (in vivo [4]; po) was 176 min.
With `CCN(CC)CCNC(=O)c1c(C)[nH]c(/C=C2\C(=O)N(COC(=O)N(C)C)c3ccc(F)cc32)c1C` [Compound 6, N-[2-(diethylamino)ethyl]-5-[(5-fluoro-2-oxo-1-(N,N-dimethylaminocarboxymethyl)-2,3-indolin-3-ylmethylene)]-2,4-dimethyl-1H-pyrrolidine-3-carboxamide] the IC50 [5] was 8.46 µM.
For `CCN(CC)CCNC(=O)c1c(C)[nH]c(/C=C2\C(=O)N(COC(=O)OC(C)(C)C)c3ccc(F)cc32)c1C` [Compound 7, N-[2-(diethylamino)ethyl]-5-[(5-fluoro-2-oxo-1-(t-butoxycarboxymethyl)-2,3-indolin-3-ylmethylene)]-2,4-dimethyl-1H-pyrrolidine-3-carboxamide], the IC50 [5] was 1.79 µM.
With `CCOC(=O)OCN1C(=O)/C(=C\c2[nH]c(C)c(C(=O)NCCN(CC)CC)c2C)c2cc(F)ccc21` [Compound 8] the IC50 [5] was 1.11 µM.
With `CCN(CC)CCNC(=O)c1c(C)[nH]c(/C=C2\C(=O)N(COC(=O)C3CCCCC3)c3ccc(F)cc32)c1C` [Compound 9, N-[2-(diethylamino)ethyl]-5-[(5-fluoro-2-oxo-1-(cyclohexylcarboxymethyl)-2,3-indolin-3-ylmethylene)]-2,4-dimethyl-1H-pyrrolidine-3-carboxamide] the IC50 [5] was 4 µM.
For `CCN(CC)CCNC(=O)c1c(C)[nH]c(/C=C2\C(=O)N(COC(C)=O)c3ccc(F)cc32)c1C` [Compound 10], the IC50 [5] was 7.46 µM.
`CCN(CC)CCNC(=O)c1c(C)[nH]c(/C=C2\C(=O)N(COC(=O)C3CC3)c3ccc(F)cc32)c1C` [Compound 11] gave an IC50 [5] of 2.56 µM.
With `CCN(CC)CCNC(=O)c1c(C)[nH]c(/C=C2\C(=O)N(COC(=O)C(C)C)c3ccc(F)cc32)c1C` [Compound 12, N-[2-(diethylamino)ethyl]-5-[(5-fluoro-2-oxo-1-(isopropylcarboxymethyl)-2,3-indolin-3-ylmethylene)]-2,4-dimethyl-1H-pyrrolidine-3-carboxamide] the IC50 [5] was 9.07 µM.
Work on `CCN(CC)CCNC(=O)c1c(C)[nH]c(/C=C2\C(=O)N(COC(=O)c3ccc(OC)cc3)c3ccc(F)cc32)c1C` [Compound 13, N-[2-(diethylamino)ethyl]-5-[(5-fluoro-2-oxo-1-(p-methoxyphenylcarboxymethyl)-2,3-indolin-3-ylmethylene)]-2,4-dimethyl-1H-pyrrolidine-3-carboxamide] yielded an IC50 [5] of 3 µM.
In the case of `CCN(CC)CCNC(=O)c1c(C)[nH]c(/C=C2\C(=O)Nc3ccc(F)cc32)c1C.O=C(O)C[C@H](O)C(=O)O` [Sunitinib, reference compound], the cell survival (786-O cell or A549 cell) is reported as “did not affect cell survival”, the cell morphology (786-O cell or A549 cell) is reported as “remained attached, elongate, and did not exhibit abnormal morphology” and the “tumor killing effects / cytotoxicity” value [2] is reported as “relatively strong tumor killing effects”. The “IC50 values among several cell lines” value ([2]; 72 hours, CCK8, FIG. 5a-f) was “comparable”, the blood glucose [6, 7] was “decreased” and the “levels of aspartate transaminase (AST) alanine aminotransferase (ALT) and cholinesterase (CHE)” value [6, 7] was “significantly elevated”. For the same compound, the “levels of lactate dehydrogenase (LDH), creatine kinase (CK) and creatine kinase-MB (CKMB)” value [6, 7] was “elevated”, the “levels of urate and blood urea nitrogen” value [6, 7] was “increased” and the “effects on the body weights” value ([6]; oral once a day for 14 days, 28 mg/kg and 70 mg/kg) was “little effects”. The “average body weight reduce” value [6, 8] was 17.6%, the “condition of the mice” value [6, 8] was “extremely weak” and the “influence on body weight” value ([6]; repeated test, oral once a day, 100 mg/kg) was “body weights did not increase”. For the same compound, the “average body weight reduce” value [6, 9] was 20%, the “condition of the mice” value [6, 9] was “extremely weak” and the half-life (in vivo [3]; 5.14 mg/kg) was 74.4 min. It also gave a Tmax (in vivo [3]; iv, 5.14 mg/kg) of 4.8 min, a clearance (in vivo [3]; iv, 5.14 mg/kg) of 4.51 mL/min and an AUC (in vivo [3]; iv, 5.14 mg/kg, AUCall) of 365 ng·h/mL. For the same compound, the AUC (in vivo [3]; iv, AUCiv) was 365 ng·h/mL, the bioavailability (in vivo [4]) was 15% and the AUC (in vivo [4]; po) was 214 ng·h/mL. The bioavailability (in vivo [4]; po) was 15.1%, the AUC(0-inf) (in vivo [4]; po, 20 mg/kg) was 43.1 ng·h/mL and the Cmax (in vivo [4]; po, 20 mg/kg) was 9.58 ng/mL. For the same compound, the Tmax (in vivo [4]; po, 20 mg/kg) was 30 min, the half-life (in vivo [4]; po, 20 mg/kg) was 284 min and the “inhibition of pSTAT3” value (pSTAT3) was “strong inhibition”.
